Results published in patent US6951729B1, “High throughput screening method for biological agents affecting fatty acid biosynthesis” (Affinium Pharmaceuticals, Inc., priority 1999, dated 2005).

Columns and labels:
[1] = system: bacterial fatty acid biosynthesis; conditions: cited from earlier work
FabK = FabK activity assay, activation by monovalent cations; assay type: biochemical, Streptococcus pneumoniae; conditions: NH4+ at 100 mM
Experimental: FabK catalyses the reduction of enoyl-ACPs with the concommitant oxidation of NADH. Crotonoyl-ACP can be prepared as described below. The reduction of crotonoyl-ACP to butyryl-ACP can be monitored by following the change in absorbance at 340 nm as NADH is oxidised.
Assays were carried out in Costar 3696 half-area plates in a fmal assay volume of 150 μl on a Spectramax platereader. Substrates, NADH and crotonoyl ACP, were incubated with FabK enzyme in […] N-[2-acetamido]-2 iminodiacetic acid (ADA), pH 6.5, 100 mM NH4Cl, 4% glycerol at 30° C. and the reaction monitored at 340 nm. This assaying can also be performed using crotonyl CoA, NADPH or an NADH analogue as a substrate.

FabH [2] = conditions: through formation of dead end inhibition complexes with enzyme
FabH [3] = target: FabH (Escherichia coli, UniProt P0A6R0); conditions: Heath et al. 1996; cited from earlier work
FabI = FabI (Escherichia coli, UniProt P0AEK4); conditions: Heath et al. 1996; cited from earlier work
Chain of FabI (P0AEK4 whole entry): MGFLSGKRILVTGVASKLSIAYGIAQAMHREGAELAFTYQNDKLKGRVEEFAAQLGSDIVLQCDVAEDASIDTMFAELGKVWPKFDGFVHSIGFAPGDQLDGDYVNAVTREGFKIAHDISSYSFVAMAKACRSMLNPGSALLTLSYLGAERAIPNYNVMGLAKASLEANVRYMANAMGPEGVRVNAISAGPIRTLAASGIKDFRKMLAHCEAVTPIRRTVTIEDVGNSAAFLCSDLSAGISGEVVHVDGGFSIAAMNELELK

Chain of FabH (Escherichia coli, UniProt P0A6R0) (P0A6R0 whole entry): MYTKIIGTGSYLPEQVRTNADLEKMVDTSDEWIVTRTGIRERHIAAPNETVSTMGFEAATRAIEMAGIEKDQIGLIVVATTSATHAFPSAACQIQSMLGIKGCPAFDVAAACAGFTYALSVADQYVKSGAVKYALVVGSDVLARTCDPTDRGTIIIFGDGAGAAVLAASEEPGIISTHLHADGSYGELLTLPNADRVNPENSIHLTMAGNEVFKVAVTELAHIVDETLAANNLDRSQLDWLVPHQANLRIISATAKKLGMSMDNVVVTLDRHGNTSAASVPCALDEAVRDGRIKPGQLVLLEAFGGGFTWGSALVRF

In the case of C/C=C/C/C=C/CCC(=O)[C@H]1O[C@H]1C(N)=O [Cerulenin], the “inhibition of bacterial fatty acid biosynthesis” value [1] is given as “potent inhibitors”.
With N [NH4^+] the “activation of the FabK reaction over the reaction with no monovalent cations” value (FabK) was “about 300 fold”.
For C=C/C(C)=C/[C@@]1(C)SC(=O)C(C)=C1O [thiolactomycin], the “inhibition of bacterial fatty acid biosynthesis” value [1] is listed as “potent inhibitors”.
In the case of Acetyl-ACP, the “inhibition of FabH” value (FabH [2]) is reported as “inhibitor of FabH”.
For palmitoyl-ACP, the “feedback inhibition of FabH” value (FabH [3]) is listed as “feedback inhibition” and the “feedback inhibition of FabI” value (FabI) is listed as “feedback inhibition”.
